# Measurements from PMC12263422, “Cryo-EM structure of the human THIK-1 K2P K^+ channel reveals a lower Y gate regulated by lipids and anesthetics” (Nature Structural & Molecular Biology, 2025).
# Values joined by “and” are separate entries in the source; they are usually repeats but may differ in a detail not shown here. Equal entries are not always repeated.
# Biological target: T1, THIK-1 Y273A (Homo sapiens, UniProt Q9HB14, Y273A)
# T1 construct: expressed in transfected cells; host or cells: Xenopus oocytes (mRNA injection)
# T1 sequence (Q9HB14 1-408 Y273A): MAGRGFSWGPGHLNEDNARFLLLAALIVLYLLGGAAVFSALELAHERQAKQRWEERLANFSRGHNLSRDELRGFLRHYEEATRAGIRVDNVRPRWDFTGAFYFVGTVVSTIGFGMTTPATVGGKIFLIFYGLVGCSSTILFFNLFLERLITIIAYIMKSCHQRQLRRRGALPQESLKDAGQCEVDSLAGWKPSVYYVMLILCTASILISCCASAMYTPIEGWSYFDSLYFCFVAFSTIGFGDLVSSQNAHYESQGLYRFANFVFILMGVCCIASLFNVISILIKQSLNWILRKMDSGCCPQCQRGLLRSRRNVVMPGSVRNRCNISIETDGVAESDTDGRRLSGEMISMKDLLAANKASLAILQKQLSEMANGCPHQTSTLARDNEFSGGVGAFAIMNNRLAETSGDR
# Assay: Inside-out excised patch recordings, oocytes, THIK-1 Y273A mutant
# Format: cell-based
# Design: Halothane inhibition: concentration or dose not given beside the values
# Source text: Human K2P13.1 THIK-1 (GenBank accession number: NM_022054) and human K2P12.1 THIK-2 (NM_022055.1) were used in this study. For functional expression studies, the respective K^+ channel subtype coding sequences were subcloned into the oocyte expression vector pSGEM or the dual-purpose expression vector pFAW[41] and verified by sequencing. All mutant channels were obtained by site-directed mutagenesis and verified by sequencing. To increase surface expression and macroscopic currents, measurements of THIK-2 channels used a mutated ER retention motif, (R11A R12A R14A R15A R16A; THIK-2*)[20]. Vector DNA was linearized with NheI or MluI, and mRNA was synthesized in vitro using the SP6 or T7 AmpliCap Max High Yield Message Maker Kit (Cellscript, USA) or HiScribe T7 ARCA mRNA Kit (New England Biolabs).
# Two-electrode voltage–clamp (TEVC) studies were performed in Xenopus oocytes. All animal use conformed to the Guide for the Care and Use of Laboratory Animals (NIH Publication 85–23), and all experiments using Xenopus toads were approved by the local ethics panels. Oocytes were stored at 17 °C in ND96 recording solution composed of (in mM): 96 NaCl, 2 KCl, 1.8 CaCl2, 1 MgCl2, 5 HEPES (pH 7.5 adjusted with NaOH and HCl), supplemented with Na-pyruvate (275 mg L^–1), theophylline (90 mg L^–1) and gentamicin (50 mg L^–1). Oocytes were injected with 1 ng mRNA for WT or mutant channels, and were incubated for 24–48 h at 17 °C. Two-electrode voltage clamp recordings were then performed as previously described[42],[43]. For macroscopic patch–clamp measurements, oocytes were obtained as described above incubated at 17 °C in a solution containing (mM): 54 NaCl, 30 KCl, 2.4 NaHCO3, 0.82 MgSO4 ×7 H2O, 0.41 CaCl2, 0.33 Ca(NO3)2 ×4 H2O and 7.5 TRIS (pH 7.4 adjusted with NaOH and HCl) for 1–4 days before use. Excised patch recordings in inside-out configuration conditions were performed at room temperature. […] Intracellular bath solutions and compounds were applied to the cytoplasmic side of excised patches for the various K^+ channels through a gravity flow multi-barrel pipette system. The intracellular solution had the following composition (in mM): 120 KCl, 10 HEPES, 2 EGTA and 1 pyrophosphate (pH adjusted with KOH and HCl). Currents were recorded with an EPC10 amplifier (HEKA Electronics) and sampled at 10 kHz or higher, with filtering set to 3 kHz (–3 dB) or higher, as appropriate for sampling rate. For measurements of GPCR activation, whole-cell currents were recorded for THIK-1 in transiently transfected HEK-293 cells. Cells were stimulated by a ramp protocol between −100 and +60 mV (holding potential, −80 mV). The pipette solution was composed of (in mM): 140 KCl, 2 MgCl2, 1 CaCl2, 2.5 EGTA and 10 HEPES (pH 7.3 adjusted with KOH and HCl). The extracellular bath solution had the following composition (in mM): 135 NaCl, 5 KCl, 2 MgCl2, 2 CaCl2, 10 glucose and 10 HEPES pH (pH 7.3 adjusted with NaOH and HCl). Oxotremorine M (Oxo-M) was added to extracellular bath solution to obtain the final concentration. Single-channel currents were recorded with an Axopatch 200B amplifier through a Digidata 1440A digitizer (Molecular Devices). Data were filtered at 2 kHz and recorded at a 200-kHz sampling rate with the program Clampex (Molecular Devices). Pipette solution and bath solution for cell-attached recordings contained (in mM): 140 KCl, 2 MgCl2, 1 CaCl2 and 10 HEPES (pH 7.4 adjusted with KOH and HCl). For inside-out recordings, the bath solution contained (in mM): 140 KCl, 2 MgCl2, 1 CaCl2 and 10 HEPES (pH 7.2 adjusted with KOH and HCl). All experiments were conducted at room temperature.
# TPenA, linoleic acid, L-α-phosphatidylinositol 4,5-bisphosphate (brain PI(4,5)P2, PIP2) (Sigma-Aldrich and Merck) and oleoyl-CoA (LC-CoA 18:1) (Avanti Polar Lipids) were prepared as stocks (1–100 mM) in DMSO, stored at −80 °C and diluted to the final concentration in the intracellular recording solution. Oxo-M (Tocris Bioscience,) was prepared as 50 mM stock in H2O. […]
structure (smiles),measurement,setting,value
FC(F)(F)C(Cl)Br (stereo not drawn) [halothane],Inhibition (%),"3.0 mM halothane, Y273A, individual recordings",24.640% and 18.199% and 20.441% and 32.359% and 23.062% and 35.325% and 35.762% and 32.640% and 40.661% and 24.150% and 21.311% and 24.444% and 21.407% and 27.084%
same,inhibition at 3000 µM,"3.0 mM halothane, Y273A, mean",27.2%
same,Halothane inhibition,"THIK-1 Y273A, 4 K+ ex., individual recordings",48.800% and 50.390% and 50.850% and 54.290% and 50.150% and 44.140% and 43.970% and 46.310% and 43.270% and 42.110%
same,Halothane inhibition,"THIK-1 Y273A, 4 K+ ex., mean",47.43%
same,Halothane inhibition,"THIK-1 Y273A, 120 K+ ex., individual recordings",50.140% and 54.850% and 53.810% and 41.990% and 54.110% and 49.130% and 50.870% and 49.910% and 52.660%
same,Halothane inhibition,"THIK-1 Y273A, 120 K+ ex., mean",50.83%
"FC(F)OC(Cl)C(F)(F)F (stereo not drawn) [Isoflurane, isoflurane]",Inhibition (%),"4.9 mM Isoflurane, Y273A, individual recordings",36.141% and 64.534% and 64.029% and 67.231% and 69.534% and 60.746% and 65.223% and 43.937% and 15.847% and 38.113% and 40.962% and 42.936%
same,inhibition at 242 µM,"isoflurane 0.242 mM, THIK-1 Y273A",9.07%
same,inhibition at 485 µM,"isoflurane 0.485 mM, THIK-1 Y273A",17.7%
same,inhibition at 2420 µM,"isoflurane 2.42 mM, THIK-1 Y273A",30.9%
same,inhibition at 4850 µM,"isoflurane 4.85 mM, THIK-1 Y273A",50.8%
same,inhibition at 24200 µM,"isoflurane 24.2 mM, THIK-1 Y273A",75%
"FCOC(C(F)(F)F)C(F)(F)F [Sevoflurane, sevoflurane]",Inhibition (%),"0.24 mM Sevoflurane, Y273A, individual recordings",39.37% and 26.75% and 26.20% and 15.99% and 28.93% and 17.93% and 28.11%
same,inhibition at 240 µM,"0.24 mM Sevoflurane, Y273A, mean",26.2%
same,inhibition at 23 µM,"THIK-1 Y273A, 0.023 mM sevoflurane",6.96%
same,inhibition at 47 µM,"THIK-1 Y273A, 0.047 mM sevoflurane",10.4%
same,inhibition at 468 µM,"THIK-1 Y273A, 0.468 mM sevoflurane",38.6%
same,inhibition at 2340 µM,"THIK-1 Y273A, 2.34 mM sevoflurane",62.5%
"CCCCC[N+](CCCCC)(CCCCC)CCCCC [TPenA, tetrapentylammonium]",Normalized currents,"TPenA 0.1 µM, THIK-1 Y273A",1.00
same,Normalized currents,"TPenA 1 µM, THIK-1 Y273A",0.96
same,Normalized currents,"TPenA 4 µM, THIK-1 Y273A",0.84
same,Normalized currents,"TPenA 15.6 µM, THIK-1 Y273A",0.65
same,Normalized currents,"TPenA 62.5 µM, THIK-1 Y273A",0.41
same,Normalized currents,"TPenA 250 µM, THIK-1 Y273A",0.19
same,Normalized currents,"TPenA 1000 µM, THIK-1 Y273A",0.07
same,Normalized currents,"TPenA 4000 µM, THIK-1 Y273A",0.03
same,τ of 1 mM TPenA block,"Y273A, individual recordings",0.054 s and 0.134 s and 0.071 s and 0.075 s and 0.076 s and 0.081 s and 0.059 s and 0.121 s and 0.057 s and 0.060 s
same,τ of 1 mM TPenA release,"Y273A, individual recordings",0.946 s and 0.858 s and 0.474 s and 1.777 s and 0.915 s and 1.232 s and 0.747 s and 0.935 s and 0.998 s and 1.301 s
same,τ of 1 mM TPenA block,"Y273A, mean",0.08 s
same,τ of 1 mM TPenA release,"Y273A, mean",1.02 s
